{"source": "patent US11752142B2", "about": "“Oral pharmaceutical compositions of dabigatran etexilate” (Breckenridge Pharmaceutical, Inc., priority 2012, dated 2023)", "origin": "cited, not measured here", "key": {"[1]": {"experiment": "not given", "remark": "listed apart in the source"}, "[2]": {"experiment": "not given", "remark": "listed apart in the source"}}, "note": "Where a name gives a salt, the structure may show the parent alone. Read-outs that look alike come from different tables or passages of the source.", "data": [{"smiles": "CCCCCCOC(=O)NC(=N)c1ccc(NCc2nc3cc(C(=O)N(CCC(=O)OCC)c4ccccn4)ccc3n2C)cc1", "note": "[DEM, dabigatran etexilate mesylate]", "values": [{"measurement": "sensitivity to light irradiation", "setting": "light irradiation", "value": "not sensitive to light irradiation"}, {"measurement": "stability", "setting": "solid state", "value": "stable in the solid state"}, {"measurement": "aqueous solubility", "setting": "[1]; acidic media", "value": "rather high solubility"}, {"measurement": "aqueous solubility", "setting": "[1]; neutral and basic media", "value": "very poor solubility"}, {"measurement": "BCS class", "setting": "[1]; poor aqueous solubility but good membrane permeability", "value": "BCS Class II"}]}, {"smiles": "CCCCCCOC(=O)NC(=N)c1ccc(NCc2nc3cc(C(=O)N(CCC(=O)OCC)c4ccccn4)ccc3n2C)cc1", "note": "[dabigatran etexilate, 3-[(2-{4-(hexyloxycarbonylamino-imino-methyl)-phenylamino]methyl}-1-methyl-1H-benzimidazol-5-carbonyl)-pyridin-2-yl-amino-propionic acid ethyl ester]", "values": [{"measurement": "Tmax", "setting": "[2]; absorption of the active", "value": 45, "unit": "minutes-1 hour"}]}, {"smiles": "[H]/N=C(/N)c1ccc(NCc2nc3cc(C(=O)N(CCC(=O)O)c4ccccn4)ccc3n2C)cc1", "note": "[dabigatran]", "values": [{"measurement": "absolute bioavailability", "setting": "[2]; dabigatran following oral administration of dabigatran etexilate", "value": "3-7%"}, {"measurement": "elimination half life", "setting": "[2]; following oral administration of dabigatran etexilate", "value": "12 to 17", "unit": "h"}]}]}
